Data taken from patent publication US9381200B2, “Nitrogen containing compounds” (WOCKHARDT LIMITED, priority 2011, dated 2016).
In brackets after ≈: the same amount, converted by molar mass. Like-named read-outs stand apart in the source and are kept apart here.

Experiments:
Format in all cases: cell-based
E. coli M 50 = assay: Antibacterial activity (MIC), agar dilution per CLSI
Procedure: (§1) The biological activity of representative compounds according to the invention against various bacterial strains was investigated. In a typical study, overnight grown bacterial cultures were diluted appropriately and inoculated on the agar media containing doubling dilutions of the test compounds. Observation for growth or no growth was performed after 16-20 hours of incubation at 35±2° C. in ambient air. The overall procedure was performed as per Clinical and Laboratory Standards Institute (CLSI) recommendations (Clinical and Laboratory Standards Institute (CLSI), Performance Standards for Antimicrobial Susceptibility Testing, 20th Informational Supplement, M 100-S20, Volume 30, No. 1, 2010).
(§2) The activities are expressed as MICs (mcg/ml).

E. coli NCTC 13351 = assay: as above; conditions: 16-20 hours, 35±2° C.
Procedure: as §1
(§3) Table 3 details antibacterial activity of representative compounds according to the invention against various E. coli strains (NCTC 13351, M 50 and 7 MP) expressing ESBL (Extended Spectrum Beta Lactamases).

E. coli 7 MP = assay: as above; conditions: Table 3, E. coli 7 MP expressing ESBL
Procedure: as §1, §3

K penumoniae H 523 = assay: Antibacterial activity (MIC) against MDR Gram negative strains; conditions: Table 4; K penumoniae H 523, KPC ESBL, MDR; read-out: MIC
Procedure: as §1, §2

P. aeruginosa Ps 21 = assay: as above; conditions: Pseudomonas aeruginosa, PS21; Table 5; P. aeruginosa Ps 21; read-out: MIC
Procedure: as §1, §2

E. Coli W 13352 = assay: as above; conditions: Escherichia coli; Table 4; E. Coli W 13352, Class A ESBL, MDR; read-out: MIC
Procedure: as §1, §2

E. Coli M 44 = assay: as above; conditions: Escherichia coli; Table 5; E. Coli M 44, Class B ESBL, MDR; read-out: MIC
Procedure: as §1, §2

E. Coli H 484 = assay: as above; conditions: Escherichia coli; Table 4; E. Coli H 484, Class C ESBL, MDR; read-out: MIC
Procedure: as §1, §2

E. Coli M 3 = assay: as above; conditions: Escherichia coli; Table 5; E. Coli M 3, Class B ESBL, MDR; read-out: MIC
Procedure: as §1, §2

K penumoniae H 521 = assay: as above; conditions: Table 4; K penumoniae H 521, KPC ESBL, MDR; read-out: MIC
Procedure: as §1, §2

E. Coli W 13353 = assay: as above; conditions: Escherichia coli; Table 4; E. Coli W 13353, Class A ESBL, MDR; read-out: MIC
Procedure: as §1, §2

P. aeruginosa ATCC 27853 = assay: as above; conditions: Pseudomonas aeruginosa, ATCC27853; Table 5; P. aeruginosa ATCC 27853; read-out: MIC
Procedure: as §1, §2

K. penumoniae S 48 = assay: as above; conditions: Table 5; K. penumoniae S 48, Class B ESBL, MDR; read-out: MIC
Procedure: as §1, §2

K penumoniae H 525 = assay: as above; conditions: Table 4; K penumoniae H 525, KPC ESBL, MDR; read-out: MIC
Procedure: as §1, §2

E. Coli W 13351 = assay: as above; conditions: Escherichia coli; Table 4; E. Coli W 13351, Class A ESBL, MDR; read-out: MIC
Procedure: as §1, §2

P. aeruginosa Ps 32 = assay: as above; conditions: Pseudomonas aeruginosa, PS32; Table 5; P. aeruginosa Ps 32; read-out: MIC
Procedure: as §1, §2

E. Coli B 89 = assay: as above; conditions: Escherichia coli; Table 4; E. Coli B 89, Class C ESBL, MDR; read-out: MIC
Procedure: as §1, §2

[1] = Table 3, E. coli M 50 expressing ESBL, agar dilution
[2] = Table 3, E. coli NCTC 13351 expressing ESBL
[3] = Escherichia coli, M50, Table 3, E. coli M 50 expressing ESBL, agar dilution, read-out: MIC
[4] = Escherichia coli, NCTC13351, Table 3, E. coli NCTC 13351 expressing ESBL, read-out: MIC
[5] = Escherichia coli, read-out: MIC
[6] = Escherichia coli, M50, Table 4, E. Coli M 50, Class C ESBL, MDR, read-out: MIC

For O=C(CC[C@@H]1CCCN1)NNC(=O)[C@H]1CC[C@@H]2CN1C(=O)N2OS(=O)(=O)O (relative stereo) [Example 31, trans-sulfuric acid mono-[2-(N′—[((S)-3-pyrrolidin-2-yl)-propionyl]-hydrazinocarbonyl)-7-oxo-1,6-diaza-bicyclo[3.2.1]oct-6-yl]ester], the MIC (E. coli M 50; [1]) was 1 mg/L (≈ 2.47 µM), the MIC (E. coli NCTC 13351; [2]) was 1 mg/L (≈ 2.47 µM) and the MIC (E. coli 7 MP) was 4 mg/L (≈ 9.87 µM).
For O=C(CC(=O)N1CCNCC1)NNC(=O)[C@H]1CC[C@@H]2CN1C(=O)N2OS(=O)(=O)O (relative stereo) [Example 40, trans-sulfuric acid mono-[2-(N′-(3-oxo-3-piperazin-1-yl-propionyl)-hydrazinocarbonyl)-7-oxo-1,6-diaza-bicyclo[3.2.1]oct-6-yl]ester], the MIC (E. coli M 50; [3]) was 1 mg/L (≈ 2.3 µM), the MIC (E. coli NCTC 13351; [4]) was 1 mg/L (≈ 2.3 µM) and the MIC (E. coli 7 MP; [5]) was 4 mg/L (≈ 9.21 µM).
With Nc1nc(C(=O)NNC(=O)[C@H]2CC[C@@H]3CN2C(=O)N3OS(=O)(=O)O)cs1 (relative stereo) [Example 42, trans-sulfuric acid mono-[2-(N′-(2-amino-thiazol-4-carbonyl)-hydrazinocarbonyl)-7-oxo-1,6-diaza-bicyclo[3.2.1]oct-6-yl]ester] the MIC (E. coli M 50; [3]) was 32 mg/L (≈ 78.7 µM), the MIC (E. coli NCTC 13351; [4]) was 32 mg/L (≈ 78.7 µM) and the MIC (E. coli 7 MP; [5]) was 64 mg/L (≈ 157 µM).
CC(C)(C)OC(=O)NNC(=O)[C@H]1CC[C@@H]2CN1C(=O)N2OS(=O)(=O)[O-].[Na+] (relative stereo) [Example 44, Sodium salt of trans-N′-(7-oxo-6-sulfooxy-1,6-diaza-bicyclo[3.2.1]octane-2-carboxylic acid)-hydrazinecarboxylic acid tert-butyl ester] gave an MIC (E. coli M 50; [1]) of 32 mg/L, an MIC (E. coli NCTC 13351; [2]) of 32 mg/L and an MIC (E. coli 7 MP) of 64 mg/L.
Molecule O=C(NNC(=O)N1CCOCC1)[C@H]1CC[C@@H]2CN1C(=O)N2OS(=O)(=O)O.[Na] (relative stereo) [Example 47, Sodium salt of trans-sulfuric acid mono-[2-(N′-(morpholin-4-oxo-carbonyl)-hydrazinocarbonyl)-7-oxo-1,6-diaza-bicyclo[3.2.1]oct-6-yl]ester] has an MIC (E. coli M 50; [1]) of 64 mg/L, an MIC (E. coli NCTC 13351; [2]) of 32 mg/L and an MIC (E. coli 7 MP) of 128 mg/L.
Molecule NC(=O)N1CCC[C@H]1C(=O)NNC(=O)[C@H]1CC[C@@H]2CN1C(=O)N2OS(=O)(=O)[O-].[Na+] (relative stereo) [Example 48, Sodium salt of trans-sulfuric acid mono-[2-(N′—[(S)-1-carbamoyl-pyrrolidin-2-carbonyl]-hydrazinocarbonyl)-7-oxo-1,6-diaza-bicyclo [3.2.1]oct-6-yl]ester] has an MIC (E. coli M 50; [1]) of 8 mg/L, an MIC (E. coli NCTC 13351; [2]) of 16 mg/L and an MIC (E. coli 7 MP) of 32 mg/L.
NC(=O)N1C[C@@H](F)C[C@H]1C(=O)NNC(=O)C1CCC2CN1C(=O)N2OS(=O)(=O)[O-].[Na+] (relative stereo) [Example 49, Sodium salt of trans-sulfuric acid mono-[2-(N′—[(2S,4S)-1-carbamoyl-4-fluoro-pyrrolidin-2-carbonyl]-hydrazinocarbonyl)-7-oxo-1,6-diaza-bicyclo[3.2.1]oct-6-yl]ester] gave an MIC (E. coli M 50; [1]) of 16 mg/L, an MIC (E. coli NCTC 13351; [2]) of 32 mg/L and an MIC (E. coli 7 MP) of 16 mg/L.
CS(=O)(=O)N1CCC[C@H]1C(=O)NNC(=O)[C@H]1CC[C@@H]2CN1C(=O)N2OS(=O)(=O)[O-].[Na+] (relative stereo) [Example 50, Sodium salt of trans-sulfuric acid mono-[2-(N′—[(S)-1-methanesulfonyl-pyrrolidin-2-carbonyl]-hydrazinocarbonyl)-7-oxo-1,6-diaza-bicyclo[3.2.1]oct-6-yl]ester] gave an MIC (E. coli M 50; [1]) of 16 mg/L, an MIC (E. coli NCTC 13351; [2]) of 16 mg/L and an MIC (E. coli 7 MP) of 32 mg/L.
CC(C)(C#N)C(=O)NNC(=O)[C@H]1CC[C@@H]2CN1C(=O)N2OS(=O)(=O)[O-].[Na+] (relative stereo) [Example 51, Sodium salt of trans-sulfuric acid mono-[2-(N′-(cyano-dimethyl-acetyl)-hydrazinocarbonyl)-7-oxo-1,6-diaza-bicyclo[3.2.1]oct-6-yl]ester] was tested, and the MIC (E. coli M 50; [1]) was 16 mg/L, the MIC (E. coli NCTC 13351; [2]) was 16 mg/L and the MIC (E. coli 7 MP) was 32 mg/L.
O=C1CC[C@@H](C(=O)NNC(=O)[C@H]2CC[C@@H]3CN2C(=O)N3OS(=O)(=O)[O-])N1.[Na+] (relative stereo) [Example 52, Sodium salt of trans-sulfuric acid mono-[2-(N′—[(S)-5-oxo-pyrrolidin-2-carbonyl]-hydrazinocarbonyl)-7-oxo-1,6-diaza-bicyclo[3.2.1]oct-6-yl]ester] showed an MIC (E. coli M 50; [1]) of 0.5 mg/L, an MIC (E. coli NCTC 13351; [2]) of 0.5 mg/L and an MIC (E. coli 7 MP) of 2 mg/L.
With C[C@H]1[C@H](NC(=O)/C(=N\OC(C)(C)C(=O)O)c2csc(N)n2)C(=O)N1S(=O)(=O)O [Aztreonam, reference compound] the MIC (E. coli M 50; [6]) was > 32 mg/L, the MIC (K penumoniae H 523) was > 32 mg/L and the MIC (P. aeruginosa Ps 21) was 8 mg/L (≈ 18.4 µM). The MIC (E. Coli W 13352) was > 32 mg/L, the MIC (E. Coli M 44) was > 32 mg/L and the MIC (E. Coli H 484) was > 32 mg/L. For the same molecule, the MIC (E. Coli M 3) was > 32 mg/L, the MIC (K penumoniae H 521) was > 32 mg/L and the MIC (E. Coli W 13353) was > 32 mg/L. The MIC (P. aeruginosa ATCC 27853) was 2 mg/L (≈ 4.59 µM), the MIC (K. penumoniae S 48) was > 32 mg/L and the MIC (K penumoniae H 525) was > 32 mg/L. The MIC (E. Coli W 13351) was > 32 mg/L, the MIC (P. aeruginosa Ps 32) was 8 mg/L (≈ 18.4 µM) and the MIC (E. Coli B 89) was > 32 mg/L.
Molecule O=C(O)c1cn(C2CC2)c2cc(N3CCNCC3)c(F)cc2c1=O [Ciprofloxacin, reference compound] has an MIC (K penumoniae H 523) of 8 mg/L (≈ 24.1 µM), an MIC (K penumoniae H 521) of 32 mg/L (≈ 96.6 µM) and an MIC (P. aeruginosa ATCC 27853) of 0.5 mg/L (≈ 1.51 µM). It also gave an MIC (K penumoniae H 525) of 32 mg/L (≈ 96.6 µM).
O=C(O)CON1C(=O)N2C[C@H]1CC[C@H]2C(=O)NNC(=O)[C@@H]1CCCNC1 [Example 4, trans-{7-oxo-2-[N′—((R)-piperidin-3-carbonyl)-hydrazinocarbonyl]-1,6-diaza-bicyclo[3.2.1]-oct-6-yloxy}-acetic acid] gave an MIC (E. coli M 50; [3]) of 8 mg/L (≈ 21.7 µM), an MIC (E. coli NCTC 13351; [4]) of 8 mg/L (≈ 21.7 µM) and an MIC (E. coli 7 MP; [5]) of 16 mg/L (≈ 43.3 µM).
Molecule O=C(CN1CCOCC1)NNC(=O)C1CCC2CN1C(=O)N2OS(=O)(=O)[O-].[Na+] (stereo not drawn) [Example 45, Sodium salt of trans-sulfuric acid mono-[2-(N′-(morpholin-4-yl-acetyl)-hydrazinocarbonyl)-7-oxo-1,6-diaza-bicyclo[3.2.1]oct-6-yl]ester] has an MIC (E. coli M 50; [1]) of 8 mg/L, an MIC (E. coli NCTC 13351; [2]) of 4 mg/L and an MIC (E. coli 7 MP) of 8 mg/L.
With NC(=O)c1cccc(C(=O)NNC(=O)C2CCC3CN2C(=O)N3OS(=O)(=O)[O-])n1.[Na+] (stereo not drawn) [Example 46, Sodium salt of trans-sulfuric acid mono-[2-(N′-(6-carboxamido-pyridin-2-carbonyl)-hydrazinocarbonyl)-7-oxo-1,6-diaza-bicyclo[3.2.1]oct-6-yl]ester] the MIC (E. coli M 50; [1]) was 64 mg/L, the MIC (E. coli NCTC 13351; [2]) was 32 mg/L and the MIC (E. coli 7 MP) was 128 mg/L.
In the case of C[C@@H](O)[C@H]1C(=O)N2C(C(=O)O)=C(SCCN=CN)C[C@H]12 [Imipenem, reference compound], the MIC (E. coli M 50; [6]) is reported as 0.5 mg/L (≈ 1.67 µM), the MIC (K penumoniae H 523) is reported as 16 mg/L (≈ 53.4 µM) and the MIC (P. aeruginosa Ps 21) is reported as > 32 mg/L. For the same molecule, the MIC (E. Coli W 13352) was 0.25 mg/L (≈ 0.835 µM), the MIC (E. Coli M 44) was 32 mg/L (≈ 107 µM) and the MIC (E. Coli H 484) was 4 mg/L (≈ 13.4 µM). It also gave an MIC (E. Coli M 3) of 8 mg/L (≈ 26.7 µM), an MIC (K penumoniae H 521) of 16 mg/L (≈ 53.4 µM) and an MIC (E. Coli W 13353) of 0.25 mg/L (≈ 0.835 µM). The MIC (P. aeruginosa ATCC 27853) was 4 mg/L (≈ 13.4 µM), the MIC (K. penumoniae S 48) was 16 mg/L (≈ 53.4 µM) and the MIC (K penumoniae H 525) was 16 mg/L (≈ 53.4 µM). The MIC (E. Coli W 13351) was 0.25 mg/L (≈ 0.835 µM), the MIC (P. aeruginosa Ps 32) was > 32 mg/L and the MIC (E. Coli B 89) was 0.5 mg/L (≈ 1.67 µM).
